Reference: article PMC10167348, “Structural mechanisms of TRPM7 activation and inhibition” (Nature Communications, 2023)

Target: T1, purified TRPM7 reconstituted in lipid bilayers (Mus musculus, UniProt Q923J1)
T1 construct: truncated C-terminally (the corresponding protein residues 1–1280); GFP (N); thrombin cleavage site (LVPRG) (N); made in house; host or cells: HEK 293S GnTI- cells (BacMam baculovirus made in Sf9)
T1 sequence (Q923J1 1-1280): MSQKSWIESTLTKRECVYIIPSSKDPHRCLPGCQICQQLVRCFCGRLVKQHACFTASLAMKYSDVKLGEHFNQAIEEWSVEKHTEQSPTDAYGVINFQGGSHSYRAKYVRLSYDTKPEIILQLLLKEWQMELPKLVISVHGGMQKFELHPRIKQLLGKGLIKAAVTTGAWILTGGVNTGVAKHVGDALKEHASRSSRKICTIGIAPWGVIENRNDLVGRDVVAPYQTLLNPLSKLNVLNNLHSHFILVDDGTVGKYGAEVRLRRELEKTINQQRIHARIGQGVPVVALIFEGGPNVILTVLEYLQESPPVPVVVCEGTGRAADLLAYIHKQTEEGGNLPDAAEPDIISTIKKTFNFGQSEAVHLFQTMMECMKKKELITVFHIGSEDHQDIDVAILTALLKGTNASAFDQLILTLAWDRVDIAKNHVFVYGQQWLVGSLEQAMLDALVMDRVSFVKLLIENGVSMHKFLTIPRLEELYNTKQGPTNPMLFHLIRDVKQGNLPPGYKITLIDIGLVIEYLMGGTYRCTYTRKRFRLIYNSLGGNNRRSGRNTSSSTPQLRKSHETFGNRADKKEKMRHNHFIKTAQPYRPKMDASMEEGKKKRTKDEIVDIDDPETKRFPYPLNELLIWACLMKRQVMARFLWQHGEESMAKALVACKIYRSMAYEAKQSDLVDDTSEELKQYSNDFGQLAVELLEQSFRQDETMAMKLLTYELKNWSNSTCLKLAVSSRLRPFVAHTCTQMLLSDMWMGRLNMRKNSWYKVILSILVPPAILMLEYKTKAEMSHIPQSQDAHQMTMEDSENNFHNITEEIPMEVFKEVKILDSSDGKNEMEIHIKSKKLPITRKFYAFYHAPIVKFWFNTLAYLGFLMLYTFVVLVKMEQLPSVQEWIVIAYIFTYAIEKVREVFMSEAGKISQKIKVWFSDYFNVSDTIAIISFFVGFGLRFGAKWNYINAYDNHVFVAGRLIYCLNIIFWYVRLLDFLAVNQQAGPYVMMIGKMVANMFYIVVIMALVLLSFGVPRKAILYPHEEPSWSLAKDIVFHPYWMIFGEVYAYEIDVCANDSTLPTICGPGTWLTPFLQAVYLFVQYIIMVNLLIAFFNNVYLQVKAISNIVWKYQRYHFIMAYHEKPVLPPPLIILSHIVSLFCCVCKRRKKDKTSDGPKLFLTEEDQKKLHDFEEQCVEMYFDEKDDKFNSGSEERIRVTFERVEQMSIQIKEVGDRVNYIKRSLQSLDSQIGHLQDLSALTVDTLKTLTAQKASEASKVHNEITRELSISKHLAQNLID
Experiment: Planar lipid bilayer single-channel recordings
Assay type: biochemical
Conditions: 2.5 μM NTB, membrane potential –100 mV, n = 3; Po without agonist 0.02 ± 0.01
Description: Planar lipid bilayers measurements were performed as described previously. Briefly, planar lipid bilayers were formed from a 30 mM solution of synthetic lipid mix POPC:POPE:POPG at a 3:1:1 ratio (Anatrace, P516:P416:P616) in n-decane (Sigma-Aldrich). The solution was used to paint a bilayer in an aperture of ∼150 µm diameter in a Meca chip (Nanion). Each cavity in the chip contained an individual integrated Ag/AgCl-microelectrode. The bathing solution contained 150 mM KCl, 0.02 mM MgCl2, 1 µM CaCl2 and 20 mM HEPES (pH 7.2). All the reagents (Sigma-Aldrich) were ultrapure (>99%). The bilayer capacitance was in the range of 5–10 pF.
The purified protein (10 ng/ml) was added to the bilayer-forming lipid mix (1 volume of protein to 1 volume of the lipid mix) and incubated for 30 min at 30 °C. […] Only after the incubated protein-lipid mix was added by painting, the unitary currents were recorded using an Orbit mini device (Nanion) controlled by the pCLAMP 10.2 software (Molecular Devices). Data were low-pass filtered at […] and digitized at 1.22 kHz. Single-channel conductance events, all-points histograms, and other parameters were identified and analyzed using the Clampfit 10.3 software (Molecular Devices). Only recordings with one channel incorporated into the lipid bilayer were subjected to single-channel analysis. […]

Oc1ccc2c3c1O[C@H]1c4oc5ccccc5c4C[C@@]4(O)[C@@H](C2)N(CC2CC2)CC[C@]314 [Naltriben, naltriben]
open probability, Po: 0.44 ± 0.25
